Entries after “also recorded” stand apart in the source; their conditions may differ. No end group written: not given here. *: point of attachment. Palmitoyl = CCCCCCCCCCCCCCCC(=O)*
What was measured:
[1] = test system: human epidermal keratinocytes (HEKa); test: In vitro cell adhesion of keratinocytes to peptide-coated microwells (calcein fluorescence); type: cell-based; conditions: for cell adhesion of keratinocytes: HEKa, peptide-coated microwells 0.5-250 μg/ml, 4 concentrations, 2 hours
Experimental: 1-Y and the comparative evaluation between them.
The cell cultures used in the following example are human epidermal keratinocytes (HEKa) in the presence of specific growth factors of keratinocytes.
First, 96 microwells are placed in a plate, they are coated with 50 μL of a peptide of general formula X-SEQ ID NO.1-Y (0.5-250 μg/ml per microwell) in distilled water and dried overnight at room temperature.
On the other hand, control assays are carried out with microwells coated with 40 μM of BSA (bovine serum albumin) so as to evaluate non-specific cell adhesion.
All the microwells have been washed with 200 μL of PBS (phosphate buffered saline) and blocked for 1 hour with 1% BSA in PBS at 37° C.
Trypsin was added to human cutaneous keratinocytes, and they were marked for 30 minutes at 37° C. in calcein-AM at a concentration of 5 μM and they were finally washed three times in Epilife® medium.
The marked cells (4.5×10^4/microwell) were added to the plate previously coated with the X-SEQ ID No. 1-Y peptide and were incubated for 2 hours at 37° C. in an atmosphere humidified with 5% CO2.
The cell adhesion was assessed by the measurement of calcein fluorescence before and after the washing.
The percentage of cell adhesion was determined by dividing the fluorescence of adhered cells by the total fluorescence of cells added to each microwell.
The cell adhesion promoted by the X-SEQ ID No. 1-Y peptides was calculated with respect to the non-specific adhesion of the cells to BSA.

laminin V = test: Immunostaining of laminin V expression in human fibroblasts and keratinocytes; type: cell-based; conditions: human fibroblasts, immunofluorescence, vs control without peptide
Excerpt: (§1) Immunostaining assays have been carried out in human fibroblasts and keratinocytes in order to determine if SEQ ID No. 2 has the ability to enhance the expression of α6 integrin and laminin V (FIGS. 2, 3, 4, and 5).
(§2) The assay uses a primary (monoclonal) antibody binding to the protein which is intended to be detected (integrin or laminin), and a secondary (polyclonal) antibody binding to the complex between the protein and the primary antibody. The secondary antibody is coupled to a fluorescent compound (FITC-Fluorescein Isothiocyanate).
(§3) FITC is illuminated with filtered light at 495 nm (absorption wavelength) and the light emitted by the dye is detected at 528 nm (emission wavelength).

beta 1 integrin = test: Immunostaining, production of beta 1 integrin; type: cell-based, human
α6 integrin = test: Immunostaining of α6 integrin expression in human fibroblasts and keratinocytes; type: cell-based
Excerpt: as §1, §2, §3

human fibroblasts = test: Cell adhesion in in vitro fibroblast culture; type: cell-based; conditions: vs untreated
Excerpt: The adhesion process at a cellular level has been determined by means of a in vitro fibroblast culture in the second embodiment assay.
FIGS. 6 and 7 show a uniform coating of the assay microwell and the growth and distribution of the fibroblasts that are more related with cell adhesion than with cell proliferation.

Substance: Pal-SEQ ID No. 1: X-SEQ ID No. 1-Y peptide where X is the palmitoyl radical (Palmitoyl-IKVAV; listed as Homo sapiens)
- cell adhesion of keratinocytes [1]: Stimulation of keratinocyte adhesion
- cell adhesion of keratinocytes ([1]; listed as Pal-SEQ ID NO.1): increase of cell adhesion

Substance: SEQ ID No. 1: peptide of general formula I in which X is hydrogen and Y is hydroxyl (H-IKVAV-OH; listed as Homo sapiens)
- cell adhesion of keratinocytes [1]: Stimulation of keratinocyte adhesion
- cell adhesion of keratinocytes ([1]; listed as SEQ ID NO. 1): increase of cell adhesion

Substance: SEQ ID No. 2-amino: variant of SEQ ID No. 2 with Y amino (SEQ ID NO. 2-NH2) (SIKVAV-NH2; listed as Homo sapiens)
- cell adhesion of keratinocytes [1]: increase of cell adhesion
- keratinocyte cell adhesion, SEQ ID No. 2 vs SEQ ID No. 2-amino (FIG. 10) ([1]; small doses (0.5 μg/ml)): greater

Substance: SEQ ID No. 2: peptide of general formula I in which X is serine and Y is hydroxyl; laminin-derived (SIKVAV-OH; listed as Homo sapiens)
- expression of laminin V (laminin V): increase of the expression; also recorded: significant increase
- expression of laminin V (laminin V; listed as SEQ ID NO.2): stimulation of the expression
- production of beta 1 integrin (beta 1 integrin): No variation
- expression of α6 integrin (α6 integrin; human fibroblasts, immunofluorescence, vs control without peptide): increase of the expression; also recorded: significant increase
- expression of α6 integrin (α6 integrin; human fibroblasts, immunofluorescence, vs control without peptide, listed as SEQ ID NO.2): stimulation of the expression
- expression of α6 integrin (α6 integrin; keratinocytes, immunostaining): not in keratinocytes
- cell adhesion of keratinocytes [1]: Stimulation of keratinocyte adhesion
- cell adhesion of keratinocytes ([1]; listed as SEQ ID NO. 2): increase of cell adhesion
- cell adhesion of keratinocytes ([1]; listed as SEQ ID NO.2): increase of cell adhesion
- keratinocyte cell adhesion, comparison between peptides (FIG. 9) ([1]; extrapolated results of FIG. 9, SEQ ID No. 2 vs SEQ ID No. 1 vs Pal-SEQ ID No. 1): greater adhesion
- keratinocyte cell adhesion, SEQ ID No. 2 vs SEQ ID No. 2-amino (FIG. 10) ([1]; larger doses): greater adhesion
- cell adhesion in human fibroblasts (human fibroblasts): promoting cell adhesion and migration

From patent US7943156B2, “Use of peptides of general formula I X-SEQ ID No.1-Y in the preparation of cosmetic compositions which are intended to improve the firmness of the skin by increasing cell adhesion” (Lipotec, S.A., priority 2004, dated 2011)
